Assay results from US9988379B2, “GPR40 receptor agonist, methods of preparing the same, and pharmaceutical compositions containing the same as an active agent” (LG CHEM, LTD., priority 2012, dated 2018).

Biological target: T1, human GPR40 (Homo sapiens, UniProt O14842)
T1 construct: expressed in transfected cells; host or cells: CHO-K1
Assay: Induction of Ca2+ (calcium flux assay) using human GPR40 expression cell line
Type: cell-based
Conditions: read-out: EC0.5
Procedure, shortened: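 Read-out is intracellular Ca2+ flux on FlexStation after test compounds (DMSO stocks diluted 200-fold in assay buffer) were added to dye-loaded human GPR40/CHO-K1 cells. Cells had been cultured 24 h, then incubated 1 h at 37° C with Calcium 5 dye, HBSS-HEPES pH 7.4; EC0.5 from concentration plot.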

T1 sequence (O14842 whole entry): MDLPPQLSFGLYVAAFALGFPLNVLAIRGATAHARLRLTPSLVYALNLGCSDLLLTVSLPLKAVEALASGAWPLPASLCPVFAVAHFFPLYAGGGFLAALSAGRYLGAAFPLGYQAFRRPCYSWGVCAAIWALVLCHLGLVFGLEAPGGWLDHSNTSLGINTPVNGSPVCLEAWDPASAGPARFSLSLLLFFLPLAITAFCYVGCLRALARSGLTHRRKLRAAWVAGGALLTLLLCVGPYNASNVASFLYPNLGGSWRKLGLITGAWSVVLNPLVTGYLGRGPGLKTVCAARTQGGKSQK

Row | SMILES | EC50 [nM]
1 | CC#C[C@@H](CC(=O)O)c1ccc(OCc2ccc3ccn(Cc4cccc(F)c4)c3c2C)cc1 [Example 42, (S)-3-{4-[1-(3-fluoro-benzyl)-7-methyl-1H-indol-6-ylmethoxy]-phenyl}-hex-4-ynoic acid] | 50 to 500
2 | CC#C[C@@H](CC(=O)O)c1ccc(OCc2ccc3cnn(Cc4ccncn4)c3c2)cc1 [Example 75, (S)-3-[4-(1-pyrimidin-4-ylmethyl-1H-indazol-6-ylmethoxy)-phenyl]-hex-4-ynoic acid] | 50 to 500
3 | CC#C[C@@H](CC(=O)O)c1ccc(OCc2cc3c(ccn3Cc3ccccc3)cc2F)cc1 [Example 41, (S)-3-[4-(1-benzyl-5-fluoro-1H-indol-6-ylmethoxy)-phenyl]-hex-4-ynoic acid] | 1 to 50
4 | Cc1c(COc2ccc([C@H](CC(=O)O)c3ccon3)cc2)ccc2ccn(Cc3ccccc3)c12 [Example 83, (S)-3-[4-(1-benzyl-7-methyl-1H-indol-6-ylmethoxy)-phenyl]-3-isoxazol-3-yl-propanoic acid] | 10
5 | O=C(O)CCc1ccc(NCc2ccc3ccn(-c4ccc(F)cc4)c3c2Cl)cc1 [Example 9, 3-(4-{[7-chloro-1-(4-fluoro-phenyl)-1H-indol-6-ylmethyl]-amino}-phenyl)-propanoic acid] | 300

Further lines, results first:

Row | EC50 [nM] | SMILES
6 | 1 to 50 | CC#C[C@@H](CC(=O)O)c1ccc(OCc2ccc3c(c2)c(CC(C)C)nn3C)cc1 [Example 186, (S)-3-[4-(3-isobutyl-1-methyl-1H-indazol-5-ylmethoxy)-phenyl]-hex-4-ynoic acid]
7 | 50 to 500 | CC(C)CCn1ncc2cc(COc3ccc4c(c3)OCCC4CC(=O)O)ccc21 (stereo not drawn) [Example 137, {7-[1-(3-methyl-butyl)-1H-indazol-5-ylmethoxy]-chroman-4-yl}-acetic acid]
8 | 3 | CC#C[C@@H](CC(=O)O)c1ccc(OCc2ccc3cnn(C(C)C)c3c2C)cc1 [Example 220, (S)-3-[4-(1-isopropyl-7-methyl-1H-indazol-6-ylmethoxy)-phenyl]-hex-4-ynoic acid]
9 | ≥ 500 | CC#C[C@@H](CC(=O)O)c1ccc(OCc2ccc3c(cnn3CCS(C)(=O)=O)c2)cc1 [Example 174, (S)-3-{4-[1-(2-methanesulfonyl-ethyl)-1H-indazol-5-ylmethoxy]-phenyl}-hex-4-ynoic acid]
10 | 1 to 50 | CC#C[C@@H](CC(=O)O)c1ccc(OCc2ccc3c(cnn3CCOCC)c2)cc1 [Example 157, (S)-3-{4-[1-(2-ethoxy-ethyl)-1H-indazol-5-ylmethoxy]-phenyl}-hex-4-ynoic acid]
11 | 10 | O=C(O)C[C@@H](c1ccc(OCc2ccc3cnn(Cc4ccccc4)c3c2)cc1)c1ccon1 [Example 85, (S)-3-[4-(1-benzyl-1H-indazol-6-ylmethoxy)-phenyl]-3-isoxazol-3-yl-propanoic acid]
12 | 300 | O=C(O)CC1COc2cc(OCc3ccc4ccn(Cc5ccccc5)c4n3)ccc21 (stereo not drawn) [Example 121, [6-(1-benzyl-1H-pyrrolo[2,3-b]pyridin-6-ylmethoxy)-2,3-dihydro-benzofuran-3-yl]-acetic acid]
